Measured values from patent US11524966B1 (Valo Early Discovery, Inc., priority 2017, dated 2022).

What follows are compounds tested against T1, USP28 (His-tagged USP28-FL-mammalian) (Homo sapiens, UniProt Q96RU2) (assay: Ubiquitin-Rhodamine 110 Assay for USP28 Activity, Example A-1(a)). Settings: Ubiquitin-Rhodamine 110 assay, Example A-1(a); read-out: USP28 A-1(a) IC50 range.
T1 construct: Expression of USP28 (1-1077)-TEV-6*His (pTT5 vector); made in house; host or cells: Expi293f cells (pTT5 vector)
T1 sequence (Q96RU2 1-1077): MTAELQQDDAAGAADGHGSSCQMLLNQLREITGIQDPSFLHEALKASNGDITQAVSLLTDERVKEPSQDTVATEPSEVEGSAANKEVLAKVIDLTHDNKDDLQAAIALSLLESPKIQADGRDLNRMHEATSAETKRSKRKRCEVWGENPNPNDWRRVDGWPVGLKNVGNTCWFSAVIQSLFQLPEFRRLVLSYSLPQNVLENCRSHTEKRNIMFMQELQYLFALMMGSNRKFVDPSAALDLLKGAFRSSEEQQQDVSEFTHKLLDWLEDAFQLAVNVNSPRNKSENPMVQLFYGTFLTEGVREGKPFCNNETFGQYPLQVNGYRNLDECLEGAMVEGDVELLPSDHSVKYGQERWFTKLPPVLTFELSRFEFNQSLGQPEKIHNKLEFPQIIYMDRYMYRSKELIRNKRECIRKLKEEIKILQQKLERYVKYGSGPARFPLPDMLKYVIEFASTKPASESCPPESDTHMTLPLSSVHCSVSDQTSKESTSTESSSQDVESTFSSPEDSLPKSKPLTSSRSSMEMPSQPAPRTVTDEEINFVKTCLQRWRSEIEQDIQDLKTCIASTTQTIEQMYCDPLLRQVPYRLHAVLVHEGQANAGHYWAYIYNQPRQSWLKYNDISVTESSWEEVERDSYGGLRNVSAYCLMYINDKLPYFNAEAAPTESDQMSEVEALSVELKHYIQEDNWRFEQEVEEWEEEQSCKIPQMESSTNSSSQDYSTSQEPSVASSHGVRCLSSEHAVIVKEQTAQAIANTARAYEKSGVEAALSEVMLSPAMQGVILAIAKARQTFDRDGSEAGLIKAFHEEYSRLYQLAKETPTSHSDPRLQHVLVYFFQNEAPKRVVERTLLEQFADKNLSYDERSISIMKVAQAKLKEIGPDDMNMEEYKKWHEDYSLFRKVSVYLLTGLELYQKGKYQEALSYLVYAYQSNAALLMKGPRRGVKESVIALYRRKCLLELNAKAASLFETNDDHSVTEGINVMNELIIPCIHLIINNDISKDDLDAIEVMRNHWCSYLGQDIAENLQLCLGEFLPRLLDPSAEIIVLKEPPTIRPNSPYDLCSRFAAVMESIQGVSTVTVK
Type: biochemical
In short: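 IC50 from 4-parameter logistic fit of percent inhibition versus no-enzyme and DMSO controls; compounds 25 μM to 1.3 nM, 3-fold. Ub-Rh110 cleavage (25 nM, below Km) by […] mammalian-expressed USP28-FL-His ran 45 min at room temperature, stopped with 10 mM citric acid, read ex 485/em 535.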

Q: Which IC50 does the source give for `CCn1ccc2cc(C(=O)N[C@@H]3CCc4cc(N5C[C@H](OC)[C@@H](N)C5)cc(F)c4C3)nnc21` [Example 139, N-[(2R)-6-[(3S,4S)-3-amino-4-methoxypyrrolidin-1-yl]-8-fluoro-1,2,3,4-tetrahydronaphthalen-2-yl]-7-ethyl-7H-pyrrolo[2,3-c]pyridazine-3-carboxamide] here?
A: The IC50 was > 2 µM.

Q: Which IC50 does the source give for `Cc1ccc2c(N)c(C(=O)N[C@H]3COc4cc(N5C[C@H](OC6CC6)[C@@H](N)C5)ccc4C3)sc2n1` [Example 140, 3-amino-N-[(3R)-7-[(3S,4S)-3-amino-4-cyclopropoxypyrrolidin-1-yl]-3,4-dihydro-2H-1-benzopyran-3-yl]-6-methylthieno[2,3-b]pyridine-2-carboxamide] here?
A: The IC50 was 0.001 to 0.05 µM.

Q: With `Cc1ccc2c(N)c(C(=O)N[C@H]3COc4cc(N5C[C@H](OC6CCC6)[C@@H](N)C5)ccc4C3)sc2n1` [Example 141, 3-amino-N-[(3R)-7-[(3S,4S)-3-amino-4-cyclobutoxypyrrolidin-1-yl]-3,4-dihydro-2H-1-benzopyran-3-yl]-6-methylthieno[2,3-b]pyridine-2-carboxamide] as the compound, how does the IC50 read?
A: The IC50 was 0.001 to 0.05 µM.

Q: With `CCO[C@H]1CN(c2ccc3c(n2)CC[C@H](NC(=O)c2sc4nc(C)ccc4c2N)C3)C[C@@H]1N` [Example 142, 3-amino-N-[(6S)-2-[(3S,4S)-3-amino-4-ethoxypyrrolidin-1-yl]-5,6,7,8-tetrahydroquinolin-6-yl]-6-methylthieno[2,3-b]pyridine-2-carboxamide] as the compound, how does the IC50 read?
A: Its IC50 is 0.2 to 2 µM.

Q: With `CO[C@@H]1CN(c2ccc3c(c2)CC[C@H](NC(=O)c2sc4nc(C)ccc4c2N)C3)C[C@@H]1N` [Example 143, 3-amino-N-[(2S)-6-[(3S,4R)-3-amino-4-methoxypyrrolidin-1-yl]-1,2,3,4-tetrahydronaphthalen-2-yl]-6-methylthieno[2,3-b]pyridine-2-carboxamide] as the compound, how does the IC50 read?
A: Its IC50 is 0.001 to 0.05 µM.

Q: With `CO[C@@H]1CN(c2cc(F)c3c(c2)OC[C@H](NC(=O)c2sc4nc(C)ccc4c2N)C3)C[C@@H]1N` [Example 145, 3-amino-N-[(3R)-7-[(3S,4R)-3-amino-4-methoxypyrrolidin-1-yl]-5-fluoro-3,4-dihydro-2H-1-benzopyran-3-yl]-6-methylthieno[2,3-b]pyridine-2-carboxamide] as the compound, how does the IC50 read?
A: Its IC50 is 0.001 to 0.05 µM.

Q: With `CO[C@H]1CN(c2cc(F)c3c(c2)OC[C@H](NC(=O)c2sc4nc(C)ccc4c2N)C3)C[C@H]1N` [Example 146] as the compound, how does the IC50 read?
A: The IC50 was 0.001 to 0.05 µM.

Q: `CO[C@H]1CN(c2ccc3c(c2)OC[C@H](NC(=O)c2sc4nc(C)cnc4c2N)C3)C[C@H]1N` [Example 148, 7-amino-N-[(3R)-7-[(3R,4S)-3-amino-4-methoxypyrrolidin-1-yl]-3,4-dihydro-2H-1-benzopyran-3-yl]-3-methylthieno[2,3-b]pyrazine-6-carboxamide] was tested. Which IC50 did it give?
A: The IC50 was 0.001 to 0.05 µM.

Q: Which IC50 does the source give for `CO[C@@H]1CN(c2ccc3c(c2)OC[C@H](NC(=O)c2sc4nc(C)sc4c2N)C3)C[C@@H]1N` [Example 149, 6-amino-N-[(3R)-7-[(3S,4R)-3-amino-4-methoxypyrrolidin-1-yl]-3,4-dihydro-2H-1-benzopyran-3-yl]-2-methylthieno[2,3-d][1,3]thiazole-5-carboxamide] here?
A: Its IC50 is 0.001 to 0.05 µM.

Q: How did the IC50 turn out when `CO[C@H]1CN(c2ccc3c(c2)OC[C@H](NC(=O)c2sc4nc(C)sc4c2N)C3)C[C@H]1N` [Example 150] was run?
A: The IC50 was 0.05 to 0.2 µM.

Q: `CCO[C@@H]1CN(c2ccc3c(c2)OC[C@H](NC(=O)c2sc4nc(C)ccc4c2N)C3)C[C@@H]1N` [Example 151, 3-amino-N-[(3R)-7-[(3S,4R)-3-amino-4-ethoxypyrrolidin-1-yl]-3,4-dihydro-2H-1-benzopyran-3-yl]-6-methylthieno[2,3-b]pyridine-2-carboxamide] was tested. Which IC50 did it give?
A: The IC50 was 0.001 to 0.05 µM.

Q: For `CCO[C@H]1CN(c2ccc3c(c2)OC[C@H](NC(=O)c2sc4nc(C)ccc4c2N)C3)C[C@H]1N` [Example 152], which IC50 is on record?
A: Its IC50 is 0.001 to 0.05 µM.

Q: For `Cc1ccc2c(N)c(C(=O)N[C@H]3COc4cc(N5C[C@@H]6NCCO[C@@H]6C5)ccc4C3)sc2n1` [Example 153, N-[(3R)-7-[(4aS,7aR)-octahydropyrrolo[3,4-b]morpholin-6-yl]-3,4-dihydro-2H-1-benzopyran-3-yl]-3-amino-6-methylthieno[2,3-b]pyridine-2-carboxamide], which IC50 is on record?
A: The IC50 was 0.05 to 0.2 µM.

Q: How did the IC50 turn out when `Cc1ccc2c(N)c(C(=O)N[C@H]3COc4cc(N5C[C@@H]6OCCN[C@@H]6C5)ccc4C3)sc2n1` [Example 154, N-[(3R)-7-[(4aR,7aS)-octahydropyrrolo[3,4-b]morpholin-6-yl]-3,4-dihydro-2H-1-benzopyran-3-yl]-3-amino-6-methylthieno[2,3-b]pyridine-2-carboxamide] was run?
A: The IC50 was 0.05 to 0.2 µM.

Q: For `COC[C@@H]1CNCCN1c1ccc2c(c1)OC[C@H](NC(=O)c1sc3nc(C)ccc3c1N)C2` [Example 155, 3-amino-N-[(3R)-7-[(2S)-2-(methoxymethyl)piperazin-1-yl]-3,4-dihydro-2H-1-benzopyran-3-yl]-6-methylthieno[2,3-b]pyridine-2-carboxamide], which IC50 is on record?
A: Its IC50 is 0.001 to 0.05 µM.

Q: For `COC[C@H]1CNCCN1c1ccc2c(c1)OC[C@H](NC(=O)c1sc3nc(C)ccc3c1N)C2` [Example 156, 3-amino-N-[(3R)-7-[(21)-2-(methoxymethyl)piperazin-1-yl]-3,4-dihydro-2H-1-benzopyran-3-yl]-6-methylthieno[2,3-b]pyridine-2-carboxamide], which IC50 is on record?
A: The IC50 was 0.05 to 0.2 µM.

Q: `COC[C@H]1CN(c2ccc3c(c2)OC[C@H](NC(=O)c2sc4nc(C)ccc4c2N)C3)CCN1` [Example 157, 3-amino-N-[(3R)-7-[(3R)-3-(methoxymethyl)piperazin-1-yl]-3,4-dihydro-2H-1-benzopyran-3-yl]-6-methylthieno[2,3-b]pyridine-2-carboxamide] was tested. Which IC50 did it give?
A: The IC50 was 0.001 to 0.05 µM.

Q: `COC[C@@H]1CN(c2ccc3c(c2)OC[C@H](NC(=O)c2sc4nc(C)ccc4c2N)C3)CCN1` [Example 158, 3-amino-N-[(3R)-7-[(3S)-3-(methoxymethyl)piperazin-1-yl]-3,4-dihydro-2H-1-benzopyran-3-yl]-6-methylthieno[2,3-b]pyridine-2-carboxamide] was tested. Which IC50 did it give?
A: Its IC50 is 0.05 to 0.2 µM.

Q: For `Cc1cc(C)c2c(N)c(C(=O)N[C@H]3COc4cc(N5CCNCC5)c(F)c(F)c4C3)sc2n1` [Example 159, 3-amino-N-[(3R)-5,6-difluoro-7-(piperazin-1-yl)-3,4-dihydro-2H-1-benzopyran-3-yl]-4,6-dimethylthieno[2,3-b]pyridine-2-carboxamide], which IC50 is on record?
A: Its IC50 is > 2 µM.

Q: `Cc1cc(C)c2c(N)c(C(=O)N[C@@H]3COc4cc(N5CCNCC5)c(F)c(F)c4C3)sc2n1` [Example 160, 3-amino-N-[(3S)-5,6-difluoro-7-(piperazin-1-yl)-3,4-dihydro-2H-1-benzopyran-3-yl]-4,6-dimethylthieno[2,3-b]pyridine-2-carboxamide] was tested. Which IC50 did it give?
A: The IC50 was 0.001 to 0.05 µM.

Q: For `COC[C@@H]1CN(c2ccc3c(c2)OC[C@H](NC(=O)c2sc4nc(C)ccc4c2N)C3)C[C@@H]1N` [Example 161, 3-amino-N-[(3R)-7-[(3R,4R)-3-amino-4(methoxymethyl)pyrrolidin-1-yl]-3,4-dihydro-2H-1-benzopyran-3-yl]-6-methylthieno[2,3-b]pyridine-2-carboxamide], which IC50 is on record?
A: The IC50 was 0.001 to 0.05 µM.

Q: `COC[C@H]1CN(c2ccc3c(c2)OC[C@H](NC(=O)c2sc4nc(C)ccc4c2N)C3)C[C@H]1N` [Example 162, 3-amino-N-[(3R)-7-[(3S,4S)-3-amino-4-(methoxymethyl)pyrrolidin-1-yl]-3,4-dihydro-2H-1-benzopyran-3-yl]-6-methylthieno[2,3-b]pyridine-2-carboxamide] was tested. Which IC50 did it give?
A: Its IC50 is 0.001 to 0.05 µM.

Q: For `COC[C@@H]1CN(c2ccc3c(c2)OC[C@H](NC(=O)c2sc4nc(C)ccc4c2N)C3)C[C@H]1N` [Example 163, 3-amino-N-[(3R)-7-[(3S,4R)-3-amino-4-(methoxymethyl)pyrrolidin-1-yl]-3,4-dihydro-2H-1-benzopyran-3-yl]-6-methylthieno[2,3-b]pyridine-2-carboxamide], which IC50 is on record?
A: Its IC50 is 0.001 to 0.05 µM.

Q: `COC[C@H]1CN(c2ccc3c(c2)OC[C@H](NC(=O)c2sc4nc(C)ccc4c2N)C3)C[C@@H]1N` [Example 164, 3-amino-N-[(3R)-7-[(3R,4S)-3-amino-4-(methoxymethyl)pyrrolidin-1-yl]-3,4-dihydro-2H-1-benzopyran-3-yl]-6-methylthieno[2,3-b]pyridine-2-carboxamide] was tested. Which IC50 did it give?
A: Its IC50 is 0.001 to 0.05 µM.
